Results reported in patent EP0429333B1, “Process for producing oxazopyrroloquinolines, novel oxazopyrroloquinolines, and use of oxazopyrroloquinolines” (priority 1989, dated 1991).

Columns and labels:
[1] = system: D-galactosamine-induced liver diseases; assay: Pharmacological effect on D-galactosamine-induced liver diseases; assay type: in vivo, SD rats; conditions: intraperitoneally twice, 1.2 ml of 0.4, 1.0, 2.0 or 3.0 mg/ml; serum 23 hours after D-galactosamine
Procedure: Thirty SD rats (male, 7 weeks old, body weight: about 240 g; supplied by Japan Charles River Co.) were divided to six groups (A-F) each consisting of five rats. All rats were fasted for 18 hours and 1.2 ml of solutions containing 0.4 mg/ml, 1.0 mg/ml, 2.0 mg/ml, and 3.0 mg/ml of OPQ were intraperitoneally administered to rats of groups C, D, E and F, respectively, and furthermore, after lapse of 40 minutes, OPQ in the same doses as above were intraperitoneally administered to the rats, respectively. In these cases, the OPQ was dissolved in physiological saline and administered to the rats. For the rats of group B, 1.2 ml of physiological saline was intraperitoneally administered in place of the OPQ solution.
Furthermore, after lapse of 20 minutes, 1.2 ml of a solution containing 0.2 mg/ml of D-galactosamine was subcutaneously injected to the rats of groups B-F. Neither OPQ nor D-galactosamine was administered to the rats of group A.
After lapse of 23 hours from administration of D-galactosamine, blood was collected from abdominal aorta and serum was obtained by centrifugal separation.
GPT, GOT and total amount of bilirubin were measured by clinical examination reagent (trademark: FUJI DRYCHEMSLIDE manufactured by Fuji Photo Film Co., Ltd.). The results are shown in Table 28 by average value of five rats.

[2] = biological target: aldose reductase of kidney (Canis lupus familiaris, UniProt A0A8I3P2L6); assay: Inhibitory effect on aldose reductase of kidney; assay type: biochemical, dog; conditions: read-out: Degree of inhibition for aldose reductase (%)
How it was run: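 Aldose reductase was purified from dog kidney medulla. Activity was measured as NADPH consumption (A340 decrease) with DL-glyceraldehyde substrate and 3mM NADPH stock, in 0.1M phosphate buffer pH 6.2 at 25°C. One unit consumes 1 µmole NADPH/min.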

[3] = system: carbon tetrachloride (CCl4)-induced liver diseases; assay: Pharmacological activity on carbon tetrachloride-induced liver diseases; assay type: in vivo, SD rats; conditions: CCl4 1 ml/kg rat; for GPT: Table 26: CCl4 only 1521, no administration 24; for Total bilirubin: Table 26: CCl4 only 1.5, no administration 0.9; for GOT: Table 26: CCl4 only 3266, no administration 140
Procedure: Twentyfive SD rats (male, 7 weeks old, body weight: about 220 g; supplied by Japan Charles River Co.) were divided to five groups (A-E) each consisting of five rats.
All rats were fasted for 16 hours and 1.1 ml of solutions containing 0.4 mg/ml, 1.0 mg/ml and 2.0 mg/ml of OPQ were intraperitoneally administered to the rats of groups C, D and E, respectively and furthermore, after 40 minutes, OPQ in the same dosage as above was intraperitoneally administered, respectively. In these cases, OPQ was used as a solution in physiological saline. To the rats of group B was intraperitoneally administered 1.1 ml of physiological saline in place of the OPQ solution.
Furthermore, after 20 minutes, 2.2 ml of 10 % carbon tetrachloride solution (in olive oil) was administered to stomach of the rats of groups B-E. Neither OPQ nor carbon tetrachloride was administered to the rats of group A.
After 24 hours from administration of carbon tetrachloride, blood was collected from abdominal aorta and serum was obtained by centrifugal separation.
GPT, GOT and amount of total bilirubin were measured by clinical examination reagent (trademark: FUJI Dry Chemslide manufactured by Fuji Photo Film Co., Ltd.). The results are shown in Table 26 by average value of five rats.

[4] = system: cataract; assay: Anti-cataract effect, intraperitoneal administration, 50 % galactose fed rats; assay type: in vivo, Sprague-Davley rats; conditions: 2 mg, 5 mg, 10 mg and 20 mg per 1 kg of rat intraperitoneally once a day
Procedure: Eightyfour male Sprague-Davley rats (supplied from Japan Charles Liver Co.) of four weeks old and having a body weight of 70 - 80 g were used and the following experiments were conducted. One group consisted of six rats.
The groups included normal group, 50 % galactose administration group, PQQ administration group, and OPQ administration group. Commercially available feeding stuff (manufactured by Japan Clea Co.) was given to the rats of normal group, and rats of 50 % galactose administration group, PQQ administration group and OPQ administration group were allowed to freely take powdery feeding stuff comprising a mixture of the above-mentioned commercially available powder feeding stuff and D-galactose for food additive in equal weight.
To the rats of PQQ and OPQ administration groups were intraperitoneally administered PQQ·2Na or OPQ in a dosage of 2 mg, 5 mg, 10 mg and 20 mg per 1 kg of rat once a day simultaneously with starting of galactose feeding and until termination of feeding.
On the 6th day and the 9th day from starting of experiment, eyeball was observed by stereoscopic microscope and judgment on cataract was made according to the following criteria. A0: No muddiness (normal) A1: Light white muddiness in the surface portion. A2: A slight heavy white muddiness in the surface portion. A3: Heavy white muddiness in the surface portion. A4: Heavy white muddiness in the surface portion and a slight white muddiness in the core portion. A5: Heavy white muddiness in the surface portion and the core portion.

[5] = 2 mg/kg rat twice intraperitoneally
[6] = 5 mg/kg rat twice intraperitoneally
[7] = 10 mg/kg rat twice intraperitoneally

SMILES: O=C(O)c1cc(C(=O)O)c2c(n1)c1ncoc1c1cc(C(=O)O)[nH]c12 [OPQ, oxazopyrroloquinoline]
- GPT, GOT and total amount of bilirubin which increased by administration of D-galactosamine [1]: all sharply decreased
- inhibition at 0.1 µM ([2]; concentration 1x10^-7 M): 51.9%
- inhibition at 0.2 µM ([2]; concentration 2x10^-7 M): 62.1%
- inhibition at 0.05 µM ([2]; concentration 5x10^-8 M): 39.3%
- GPT ([3]; 2 mg/kg rat twice intraperitoneally, serum after 24 hours): 1057 U/l
- Total bilirubin [3, 5]: 1.2 mg/dL
- GOT [3, 5]: 2402 U/l
- Total bilirubin [3, 6]: 1.2 mg/dL
- GPT [3, 6]: 553 U/l
- GOT [3, 6]: 1892 U/l
- Total bilirubin [3, 7]: 1.1 mg/dL
- GPT [3, 7]: 650 U/l
- GOT [3, 7]: 1907 U/l
- rats died [4]: no rats died
